Structures can show the parent of a compound that is named as a salt. Where two headings read alike, the source gives them in different places.
Test system: rats
Type: in vivo, male Sprague-Dawley rats
Settings: 40 mg/kg oral
Procedure: In the present study the test compounds were administered perorally by means of a stomach tube as an aqueous suspension in 5% acacia gum at a constant volume of 10 ml/kg to male Swiss mice and male Sprague-Dawley rats. Control rats and mice were given a corresponding volume of the aqueous suspension medium. The results were statistically evaluated by Dunnett's test (C. V. Dunnett.: J.A. Stat. Ass., 40, 1096, 1955).
1. Anti-inflammatory activity
The anti-inflammatory activity was determined in the carrageenin edema test according to Winter et al., (see C. A. Winter, E. A. Risley, G. W. Muss: J. Pharm. Exp. Ther., 141, 369, 1963).
The edema was provoked in rats by a subplantar injection into the right hind paw of 0.1 ml of a 1% carrageenin suspension in sterile saline solution.
Rats were treated orally with the test compound 60 minutes before the injection of carrageenin. The volume of the foot was measured with a mercury differential volume-meter immediately before injection of the phlogistic agent, and 3 and 5 hours thereafter. The anti-inflammatory activity was evaluated as percent edema inhibition of treated rats in comparison with the controls, according to the following formula: [formula]

CCCCC(C(=O)O)C(=O)N(Nc1ccccc1)c1ccccc1 (centres unmarked) [B, Calcium salt of butylpropanedioic acid mono(1,2-diphenylhydrazide), reference compound] was tested, and the Edema volume, mean ± standard deviation (3 h after carrageenin) was 1.42 ± 0.27 mL and the Edema volume, mean ± standard deviation (5 h after carrageenin) was 2.06 ± 0.42 mL.

Source: patent publication US4301177A, “(3-Methyl-2-butenyl)propanedioic acid mono (1,2-diphenylhydrazide) and salts thereof” (Istituto de Angeli S.p.A., priority 1979, dated 1981)
